Columns and labels:
OATP1B3 = target: T1, OATP1B3 (Homo sapiens, UniProt Q9NPD5); assay: [14C]fluciclovine uptake by OATP1B3-expressing cells; assay type: in vitro ADME; settings: OATP1B3 cells vs mock cells
T1 construct: host or cells: HEK293
T1 sequence (Q9NPD5 1-702): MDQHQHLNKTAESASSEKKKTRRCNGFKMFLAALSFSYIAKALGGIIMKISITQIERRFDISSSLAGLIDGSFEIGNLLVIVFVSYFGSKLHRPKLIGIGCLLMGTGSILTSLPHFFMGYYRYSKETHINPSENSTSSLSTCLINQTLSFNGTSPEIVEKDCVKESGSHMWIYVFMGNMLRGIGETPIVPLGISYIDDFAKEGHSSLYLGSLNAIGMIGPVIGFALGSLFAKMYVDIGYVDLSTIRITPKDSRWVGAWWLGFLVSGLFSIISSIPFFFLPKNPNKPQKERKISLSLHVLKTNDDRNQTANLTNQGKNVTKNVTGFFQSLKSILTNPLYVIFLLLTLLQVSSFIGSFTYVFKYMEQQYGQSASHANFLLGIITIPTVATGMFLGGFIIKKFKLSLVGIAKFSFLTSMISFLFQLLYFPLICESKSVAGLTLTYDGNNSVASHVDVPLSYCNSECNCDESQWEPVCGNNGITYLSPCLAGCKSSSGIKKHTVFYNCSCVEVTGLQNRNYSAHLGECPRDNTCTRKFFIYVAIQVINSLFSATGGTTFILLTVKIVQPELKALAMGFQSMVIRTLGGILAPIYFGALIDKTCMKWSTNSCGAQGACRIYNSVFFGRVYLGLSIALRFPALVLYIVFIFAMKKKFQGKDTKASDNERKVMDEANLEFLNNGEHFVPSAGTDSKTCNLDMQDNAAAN
Description: (§1) For the SLC transporter experiments, Mock Flp-in-293 cells (Flp/mock), OAT1-expressing Flp-in-293 cells (Flp/OAT1), mock HEK293 cells (HEK/mock), and OATP1B3-expressing HEK293 cells (HEK/OATP1B3) were obtained from Kanazawa University (Ishikawa, Japan). Briefly, Flp-in-293 and HEK293 cells were transfected with the appropriate plasmid DNA and selected using antibiotics (hygromycin or G-418). All cell lines were cultured in DMEM (Life Technologies Japan) supplemented with 10% (v/v) fetal bovine serum (American Type Culture Collection) and antibiotics (100 U/mL penicillin and 100 μg/mL streptomycin (Life Technologies Japan) for mock cells, 0.2 mg/mL hygromycin for Flp/OAT1 cells, and 1.2 mg/mL G-418 (Roche Diagnostics K.K., Tokyo, Japan) for HEK/OATP1B3 cells) at 37 °C under an atmosphere containing 5% CO2. […]
(§2) The experiments were performed as described previously, with minor modifications. […] The cells were lysed in 0.3 mL of 0.1N NaOH at room temperature, after which the radioactivity of each aliquot was measured as described above. The protein concentration of the cell lysate was determined with a VersaMax microplate reader (Molecular Devices Japan K.K., Osaka, Japan) or SpectraMax i3x (Molecular Devices Japan K.K.; only for OATP1B1) using a BCA Protein Assay Kit (Thermo Fisher Scientific, Kanagawa, Japan). Tracer uptake was expressed as pmol/mg protein. […]

OATP1B1 = target: T2, OATP1B1 (Homo sapiens, UniProt Q9Y6L6); assay: Inhibition of tracer uptake in OATP1B1-expressing cells; assay type: in vitro ADME; settings: OATP1B1, tracer [3H]E2G 0.1 µM
T2 construct: host or cells: HEK293
T2 sequence (Q9Y6L6 1-691): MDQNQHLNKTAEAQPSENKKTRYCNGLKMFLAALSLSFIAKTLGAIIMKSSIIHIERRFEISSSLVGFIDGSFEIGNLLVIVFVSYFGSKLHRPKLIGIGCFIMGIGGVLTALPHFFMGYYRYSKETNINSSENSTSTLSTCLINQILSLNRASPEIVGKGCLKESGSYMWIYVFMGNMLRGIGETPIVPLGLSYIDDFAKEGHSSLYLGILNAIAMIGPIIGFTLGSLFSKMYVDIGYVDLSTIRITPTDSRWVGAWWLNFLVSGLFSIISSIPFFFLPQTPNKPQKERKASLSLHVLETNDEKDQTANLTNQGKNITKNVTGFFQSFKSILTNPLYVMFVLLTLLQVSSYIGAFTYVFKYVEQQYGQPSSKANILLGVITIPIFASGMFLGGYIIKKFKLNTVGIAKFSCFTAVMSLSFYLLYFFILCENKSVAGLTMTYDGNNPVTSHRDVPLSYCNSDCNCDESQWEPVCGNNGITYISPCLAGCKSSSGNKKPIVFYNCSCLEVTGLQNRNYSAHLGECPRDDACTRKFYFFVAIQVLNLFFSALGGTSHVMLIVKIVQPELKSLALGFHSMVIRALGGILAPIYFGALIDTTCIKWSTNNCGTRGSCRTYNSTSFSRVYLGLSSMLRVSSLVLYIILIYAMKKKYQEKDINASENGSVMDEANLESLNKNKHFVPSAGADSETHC
Description: as §1, §2

| IC50 (OATP1B1) | SMILES | drug transporter-mediated uptake (OATP1B3) |
| --- | --- | --- |
|  | N[14C]1(C(=O)O)CC(F)C1 (stereo not drawn) [[^14C]fluciclovine, trans-1-amino-3-fluoro[1-^14C]cyclobutanecarboxylic acid] | negligible |
| 5.41 ± 2.49 mM | N[C@]1(C(=O)O)C[C@@H](F)C1 [fluciclovine] |  |
